Measurements from ChEMBL document CHEMBL1201862, “PubChem BioAssay data set” (2004).
Activity calls are given as the source filed them. For most assays here, no stated cut-off is given here; in the data, actives have a measured EC50 and inactives only a lower limit.

Experiments:
[1] = inhibitors of SNCA 5'UTR-driven reporter translation, confirmation, H4 neuroglioma cells, luminescence (AID 1988); assay type: functional, cell-based
[2] = Luminescence Cell-Based Dose Response HTS to Identify Inhibitors of 5'UTR Stem-Loop Driven Prion Protein mRNA Translation in H4 Neuroglioblastoma Cells. [Related pubchem assays: 1827 (Project Summary), 1813 (Primary HTS)]; assay type: functional
[3] = inhibitors of firefly luciferase expression or activity, dose response, H4 neuroglioma cells, luminescence (AID 1990); assay type: functional, cell-based
[4] = target: T1, Cytochrome P450 1A2 (Homo sapiens, UniProt P05177);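 further: PubChem cytochrome P450 panel assay, CYP1A2 panel member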
T1 sequence (P05177 whole entry): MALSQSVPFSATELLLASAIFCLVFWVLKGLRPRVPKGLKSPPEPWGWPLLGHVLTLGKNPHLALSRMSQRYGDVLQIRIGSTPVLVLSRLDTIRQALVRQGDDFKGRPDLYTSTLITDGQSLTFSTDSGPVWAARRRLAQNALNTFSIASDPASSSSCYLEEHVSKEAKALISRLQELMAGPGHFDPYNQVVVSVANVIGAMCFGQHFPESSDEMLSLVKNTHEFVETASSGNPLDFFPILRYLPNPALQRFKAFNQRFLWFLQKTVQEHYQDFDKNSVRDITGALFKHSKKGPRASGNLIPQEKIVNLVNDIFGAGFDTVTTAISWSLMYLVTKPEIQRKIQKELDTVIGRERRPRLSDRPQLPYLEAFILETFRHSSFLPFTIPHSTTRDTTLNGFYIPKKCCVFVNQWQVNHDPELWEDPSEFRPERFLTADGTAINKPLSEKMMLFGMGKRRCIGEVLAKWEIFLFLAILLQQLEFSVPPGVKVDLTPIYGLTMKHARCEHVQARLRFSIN

[5] = tested on: INS1; assay: beta cell apoptosis inhibitors, cytokine rescue, dose response, luminescence, retest (AID 449756); assay type: functional, cell-based; settings: Rattus norvegicus;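 further: cell death triggered by IL-1 beta plus TNF-alpha plus IFN-gamma mixture; protective hits raise ATP signal compared with cytokine alone wells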
[6] = target: T2, Streptokinase A (Streptococcus pyogenes serotype M1, UniProt P10520); assay: S. pyogenes streptokinase expression inhibitors, potency, dose response, plasminogen activation absorbance, OD405 (AID 1914); assay type: functional, Streptococcus pyogenes M1 GAS;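 further: secreted streptokinase activity via plasminogen activation per viability signal from cell pellet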
T2 sequence (P10520 whole entry): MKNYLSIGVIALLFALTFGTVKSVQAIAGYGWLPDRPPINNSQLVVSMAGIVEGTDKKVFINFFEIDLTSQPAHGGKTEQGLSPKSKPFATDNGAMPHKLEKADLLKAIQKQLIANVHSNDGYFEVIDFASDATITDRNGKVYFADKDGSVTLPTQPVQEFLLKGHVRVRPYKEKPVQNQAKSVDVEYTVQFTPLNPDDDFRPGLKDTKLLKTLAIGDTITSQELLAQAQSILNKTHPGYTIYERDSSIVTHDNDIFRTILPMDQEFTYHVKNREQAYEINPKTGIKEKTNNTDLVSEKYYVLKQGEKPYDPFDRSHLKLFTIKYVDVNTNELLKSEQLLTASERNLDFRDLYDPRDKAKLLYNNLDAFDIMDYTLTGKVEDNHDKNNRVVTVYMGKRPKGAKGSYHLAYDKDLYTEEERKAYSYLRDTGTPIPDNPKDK

[7] = target: T3, Heat shock factor protein 1 (Mus musculus, UniProt P38532); assay: HSF1 potentiators in luciferase reporter cells, confirmation, cell-based, NIH3T3, luminescence, dose retest (AID 435004); assay type: functional;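 further: stress induced by proteasome inhibitor MG132 added 30 min after compound; luciferase reporter driven by HSF1 response element in NIH3T3 cells; actives raise luminescence as potentiators of the MG132 stress response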
T3 sequence (P38532 whole entry): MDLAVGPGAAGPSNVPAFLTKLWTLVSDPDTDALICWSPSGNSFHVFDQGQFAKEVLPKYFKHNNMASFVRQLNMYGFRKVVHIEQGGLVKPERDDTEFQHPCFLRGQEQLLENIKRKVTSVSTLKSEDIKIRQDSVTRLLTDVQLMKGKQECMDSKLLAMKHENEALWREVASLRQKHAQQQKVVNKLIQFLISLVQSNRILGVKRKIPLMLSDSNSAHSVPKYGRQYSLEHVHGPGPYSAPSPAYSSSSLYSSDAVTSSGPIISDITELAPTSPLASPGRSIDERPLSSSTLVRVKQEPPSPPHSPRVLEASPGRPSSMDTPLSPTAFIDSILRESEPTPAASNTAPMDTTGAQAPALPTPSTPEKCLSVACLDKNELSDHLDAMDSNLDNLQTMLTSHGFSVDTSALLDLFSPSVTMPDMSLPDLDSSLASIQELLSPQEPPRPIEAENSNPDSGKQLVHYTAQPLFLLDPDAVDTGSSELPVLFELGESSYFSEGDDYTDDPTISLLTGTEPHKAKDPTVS

[8] = tested on: Streptococcus; assay: Group A Streptococcus viability loss, dose response, counter-screen for streptokinase expression inhibitor project, luminescence, BacTiterGlo (AID 1915); assay type: functional, organism-based;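 further: potency for reduction of bacterial viability or growth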
[9] = tested on: Streptococcus sp. 'group A'; assay: growth inhibition of control SK(-) GAS strain, dose response, counter-screen for streptokinase expression inhibitor project, luminescence, kanamycin, BacTiterGlo, confirmation (AID 1900); assay type: functional, organism-based
[10] = target: Cytochrome P450 2D6 (Homo sapiens, UniProt P10635);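 further: CYP2D6 member of a cytochrome P450 panel assay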
[11] = inhibitors of intracellular T. cruzi replication, confirmation, NIH3T3 host cells, beta-gal luminescence (AID 2044); assay type: functional, cell-based;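 further: intracellular parasites grown in NIH/3T3 mouse fibroblasts as host cells; luminescent beta-galactosidase reporter signal from transgenic T. cruzi replicating inside host cells; inhibitors lower the luminescence signal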
[12] = cytotoxicity toward NIH3T3 fibroblasts, dose response, counter-screen, cell-based, ATP luminescence, mouse fibroblasts (AID 2010); assay type: functional;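 further: cells exposed to compound for about 90 hours before reading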

Cytochrome P450 2D6, sequence (P10635 whole entry): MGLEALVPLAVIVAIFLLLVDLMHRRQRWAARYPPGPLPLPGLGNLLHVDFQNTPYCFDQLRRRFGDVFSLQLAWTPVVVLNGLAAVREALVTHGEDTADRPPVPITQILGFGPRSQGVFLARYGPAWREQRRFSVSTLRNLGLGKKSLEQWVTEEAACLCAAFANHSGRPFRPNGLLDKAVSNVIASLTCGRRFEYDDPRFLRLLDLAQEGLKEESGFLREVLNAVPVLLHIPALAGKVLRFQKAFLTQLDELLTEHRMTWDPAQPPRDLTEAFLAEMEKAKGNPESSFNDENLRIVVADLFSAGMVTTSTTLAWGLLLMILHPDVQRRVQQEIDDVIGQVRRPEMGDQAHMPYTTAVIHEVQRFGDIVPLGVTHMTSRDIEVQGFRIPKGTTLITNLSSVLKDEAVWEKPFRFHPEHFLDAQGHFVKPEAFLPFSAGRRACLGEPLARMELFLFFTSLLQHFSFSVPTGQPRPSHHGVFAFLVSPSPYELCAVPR

Row | Structure (SMILES) | EC50 [1] | EC50 [2] | EC50 [3] | AC50 [4] | other results
1 | Cc1cc(=O)n2nc(N3CCCC(C(=O)N4CCc5ccccc54)C3)sc2n1 (configuration not stated) | 34.1 µM (active) | > 120 µM (not active) | 22.1 µM (active) | – | –
2 | CCN(CC)c1ccc(NC(=O)COc2ccc(C#N)cc2)cc1S(=O)(=O)Nc1ccc(OC)cc1 | 92.7 µM (active) | > 120 µM (not active) | 20.6 µM (active) | – | –
3 | COC(=O)c1cn(-c2ccc(Cl)cc2)c(=O)c2ccccc12 | > 120 µM (not active) | > 60 µM (not active) | 16.2 µM (active) | – | –
4 | O=C(NCCCN1CCN(C2CCCCC2)CC1)Nc1ccccc1C(F)(F)F | – | – | – | 25.1 µM (inconclusive) | –
5 | c1ccc(-c2nnc(CSc3ccc4c(c3)OCCO4)o2)cc1 | – | – | – | – | AC50 [5]: > 260 µM (inactive)
6 | Cc1ccc(Oc2nnc(-c3ccccc3)cc2C#N)cc1 | – | – | – | 2.51 µM (inconclusive) | –
7 | Cc1nnc(SCC2=C(C(=O)O)N3C(=O)C(NC(=O)c4cccc(F)c4F)C3SC2)s1 (configuration not stated) | – | – | – | – | EC50 [6]: > 150 µM (not active); EC50 [7]: 246 µM (active); EC50 [8]: 1.01 µM (active); EC50 [9]: 0.377 µM (active)
8 | O=c1c(CCc2ccccc2)nc2cnc(N3CCNCC3)nc2n1-c1ccccc1 | – | – | – | 15.8 µM (inconclusive) | –
9 | Cc1nc2ccccc2nc1-c1ccc(/N=[N+](\[O-])c2ccc(-c3nc4ccccc4nc3C)cc2)cc1 | – | – | – | 6.31 µM (inconclusive) | –
10 | Clc1cc(I)cc(Cl)c1N=C1NCCN1 [PI-CLONIDINE] | – | – | – | 15.8 µM (inconclusive) | –
11 | COC(=O)c1cc2ccsc2n1CC(=O)Nc1cc(Cl)ccc1OC | 10.9 µM (active) | > 120 µM (not active) | 18.8 µM (active) | – | –
12 | OC(COCc1ccccc1)Cn1cnc2ccccc21 (configuration not stated) | – | – | – | 15.8 µM (inconclusive) | –
13 | COc1ccc(-c2noc(CSc3nnc(CCc4ccccc4)n3-c3ccccc3)n2)cc1OC | > 120 µM (not active) | 14.5 µM (active) | 14 µM (active) | – | –
14 | CC1CCc2c(sc3nc(C4CC4)nc(N4CCN(C(=O)c5ccco5)CC4)c23)C1 (configuration not stated) | – | – | – | – | AC50 [5]: 4.18 µM (active); EC50 [6]: 3.24 µM (active); EC50 [8]: 9.93 µM (active); EC50 [9]: 3.48 µM (active)
15 | O=C(Nc1nnc(SCc2ccccc2Cl)s1)C1COc2ccccc2O1 (configuration not stated) | – | – | – | – | EC50 [6]: 7.36 µM (active); EC50 [8]: 16.7 µM (active); EC50 [9]: 4.52 µM (active)
16 | COc1ccc(-c2oc3cccnc3c2C#CC2(O)CCCCC2)cc1 | – | – | – | – | EC50 [6]: > 150 µM (not active); EC50 [8]: 11.1 µM (active); EC50 [9]: 7.18 µM (active)
17 | CCNc1ncc2nc(-c3ccc(F)cc3)c(=O)n(CCC#N)c2n1 | – | – | – | 0.631 µM (inconclusive) | AC50 [10]: 0.1 µM (inconclusive)
18 | Oc1c(Br)cc(Br)cc1CNc1ccc(F)cc1 | – | – | – | – | EC50 [6]: 84.4 µM (active); EC50 [8]: > 150 µM (not active); EC50 [9]: 20.4 µM (active)
19 | Nc1sc(-c2ccccc2)n[n+]1Cc1cccc2cccnc12 | > 120 µM (not active) | > 120 µM (not active) | > 120 µM (not active) | – | EC50 [11]: 2.77 µM (active); EC50 [12]: > 60 µM (not active)
20 | COc1ccc(/C(O)=C/C2=NCCc3cc(OC)c(OC)cc32)cc1OC | 84.3 µM (active) | > 120 µM (not active) | > 120 µM (not active) | – | –
21 | COc1ccc(CNC(=O)C2CCN(c3nc(OC)nc(OC)n3)CC2)cc1 | > 120 µM (not active) | > 120 µM (not active) | > 120 µM (not active) | – | –
22 | O=C(Nc1cc(Sc2ccccn2)cc([N+](=O)[O-])c1)c1ccc(Cl)cc1 | – | – | – | – | AC50 [5]: 5.46 µM (active)
23 | CC(=O)c1c(O)c(C)c(-c2ccccc2)n(-c2ccccc2)c1=O | – | – | – | 6.31 µM (inconclusive) | –
24 | Cc1cc(-c2ccccc2)nnc1NCCN1CCOCC1 [MINAPRINE] | – | – | – | 10 µM (inconclusive) | AC50 [10]: 7.94 µM (inconclusive)
25 | O=C(NCCCn1ccnc1)c1ccc(-c2ccccc2)cc1 | – | – | – | – | AC50 [5]: 7.41 µM (active)
